This is an account of results in patent US20080233209A1, “Composition and method of use for the treatment of metabolic syndrome and inflammation” (POLIFENOLES NATURALES, SL, priority 2007, published 2008).

Data set [1] can be described thus: Tolerability in the 16-week clinical trial of Example 1. It is filed as in vivo, human. As for the experimental part: Forty-one (n=41) volunteers with an average body weight of 91.5±14.4 kgs (201+9.7 lbs), body fat of 40.4±3.7 kgs (88.8+8 lbs), liver fat content above 10% and average age of 37.4±4.8 years were recruited to take part in a 16-week clinical trial. Daily meal composition was 50% carbohydrate, 30% protein and 20% fat. Food record data, body composition, EER, and blood sample analysis results were assessed on admission and every week for 16-weeks. Energy expenditure rate (EER) was measured by indirect calorimetry. Plasma levels of inflammatory markers alanine aminotransferase (ALT), aspartate aminotransferase (AST), g-glutamyltransferase (GGT) enzymes and C-reactive protein (CRP) were evaluated as measures of liver function, along with diastolic and systolic blood pressure, dual-energy X-ray absorptiometry to determine percent of lean and fat body mass, and liver fat content.
Subjects were randomly assigned to one of 10 treatments or placebo (total 11 groups), which were in softgel capsules and were to be consumed with water 15 to 30 mins. before meals. Each phytomedicine soft-gel capsule provided 100 mg of Undaria pinnatifida (Phaeophyceae) brown marine vegetable extract and 100 mg of cold-pressed pomegranate (Punica granatum, Punicaceae) seed oil.
All subjects completed 16 weeks clinical trial without any reported adverse effects. […]

A short description of data set [2]: Energy expenditure rate (EER) by indirect calorimetry, 16-week double-blind placebo-controlled trial in obese non-diabetic female volunteers with NAFLD (Example 1). It is filed as in vivo, human. Also noted: key to Effects on EER: NE = No effect; * = significant vs. placebo and vs. baseline, p < 0.05% at the week listed for the duration of the study; *** = significant vs. placebo and vs. baseline, p < 0.001%. The following applies: for Effects on EER: 16 weeks. An excerpt:
The objectives of the study were to investigate the effects of different doses of a brown marine vegetable extract standardized by fucoxanthin content, pomegranate seed oil containing a minimum of 70% punicic acid, and the phytomedicine combining, both of fucoxanthin and pomegranate seed oil, on energy expenditure rate (EER) in obese non-diabetic female volunteers with non-alcoholic fatty liver disease (NAFLD) on a moderate calorie restriction diet. Forty-one (n=41) volunteers with an average body weight of 91.5±14.4 kgs (201+9.7 lbs), body fat of 40.4±3.7 kgs (88.8+8 lbs), liver fat content above 10% and average age of 37.4±4.8 years were recruited to take part in a 16-week clinical trial. Daily meal composition was 50% carbohydrate, 30% protein and 20% fat. Food record data, body composition, EER, and blood sample analysis results were assessed on admission and every week for 16-weeks. Energy expenditure rate (EER) was measured by indirect calorimetry. Plasma levels of inflammatory markers alanine aminotransferase (ALT), aspartate aminotransferase (AST), g-glutamyltransferase (GGT) enzymes and C-reactive protein (CRP) were evaluated as measures of liver function, along with diastolic and systolic blood pressure, dual-energy X-ray absorptiometry to determine percent of lean and fat body mass, and liver fat content. Subjects were randomly assigned to one of 10 treatments or placebo (total 11 groups), which were in softgel capsules and were to be consumed with water 15 to 30 mins. before meals. Each phytomedicine soft-gel capsule provided 100 mg of Undaria pinnatifida (Phaeophyceae) brown marine vegetable extract and 100 mg of cold-pressed pomegranate (Punica granatum, Punicaceae) seed oil.

The conditions of data set [3]: fucoxanthin, wistar rats; cited from earlier work.
Data set [4] concerns mitochondrial uncoupling protein 1 (UCP1). The following applies: fucoxanthin; cited from earlier work.
For data set [5] the following is noted: fucoxanthin, cited from earlier work.

Entries after “also recorded” stand apart in the source; their conditions may differ. Read-outs that look alike come from different tables or passages of the source.

Consider Pomegranate Seed Oil, for which the tolerability entry in data set [1] (human, in vivo) is “well tolerated”.

fucoxanthin: the tolerability entry in data set [1] (16 weeks, all subjects, no reported adverse effects) was “well tolerated”. Further, the “Effects on EER vs. placebo and baseline” value in data set [2] (8.40 mg fucoxanthin) is “highly significant”. Besides, the “Effects on EER vs. those of 4.20 mg fucoxanthin” value in data set [2] (8.40 mg fucoxanthin) is recorded as “significant”. For the same substance, in data set [2] (16-week trial, fucoxanthin as mg fucoxanthin/day), the “minimum doses that resulted in statistically significant increases in EER” value was 2.52 mg. For the same substance, the “Effects on EER” value in data set [2] (Fucoxanthin 1.68 mg/day) was “NE”; in data set [2] (Fucoxanthin 2.52 mg/day) it was “* (* = significant vs. placebo and vs. baseline, p < 0.05% at the week listed for the duration of the study)”; in data set [2] (Fucoxanthin 4.20 mg/day), “* (* = significant vs. placebo and vs. baseline, p < 0.05% at the week listed for the duration of the study)”; in data set [2] (Fucoxanthin 8.40 mg/day), “*** (*** = significant vs. placebo and vs. baseline, p < 0.001%)”. The “EER in obese subjects (overall)” value in data set [2] (oral supplementation, effect dose-dependent and time-dependent) is “increased; also recorded: statistically significant dose-dependent increase”. Besides, the WAT entry in data set [3] and in data set [5] (obese KK-Ay mice) was “reduced WAT” in each case. In data set [4], the “expression of uncoupling protein UCP1 gene in white adipose tissue (WAT)” value is recorded as “upregulates”. Also, the body weight result in data set [5] (KK-Ay mice) was “significant reduction”.
